In one data set the target is PvCLK3. Put plainly: TR-FRET kinase assay. The format is biochemical, Plasmodium vivax. Particulars: recombinant kinase.
The target of a further data set is T1, PbCLK3 (Plasmodium berghei, UniProt A0A509AKE9).
T1 sequence (A0A509AKE9 1-706): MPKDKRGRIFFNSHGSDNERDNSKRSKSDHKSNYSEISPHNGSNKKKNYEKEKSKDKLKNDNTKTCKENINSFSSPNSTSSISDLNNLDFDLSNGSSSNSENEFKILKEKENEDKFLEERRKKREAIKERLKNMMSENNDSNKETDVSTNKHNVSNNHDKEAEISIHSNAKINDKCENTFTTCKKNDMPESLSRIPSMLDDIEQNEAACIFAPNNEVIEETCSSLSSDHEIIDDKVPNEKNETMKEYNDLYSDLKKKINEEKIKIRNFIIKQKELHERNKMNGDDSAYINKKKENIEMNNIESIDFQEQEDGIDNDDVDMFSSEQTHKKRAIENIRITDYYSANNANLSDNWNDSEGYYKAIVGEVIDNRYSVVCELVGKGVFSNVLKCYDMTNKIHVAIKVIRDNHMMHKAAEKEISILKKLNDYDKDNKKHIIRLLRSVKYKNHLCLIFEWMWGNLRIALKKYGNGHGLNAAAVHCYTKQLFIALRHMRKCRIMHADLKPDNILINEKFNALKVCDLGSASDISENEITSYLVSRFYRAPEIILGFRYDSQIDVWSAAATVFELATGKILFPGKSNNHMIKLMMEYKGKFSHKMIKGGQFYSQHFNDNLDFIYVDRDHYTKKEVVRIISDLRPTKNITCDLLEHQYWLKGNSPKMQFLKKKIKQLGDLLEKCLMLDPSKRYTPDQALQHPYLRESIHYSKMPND
Put plainly: TR-FRET kinase assay. The format is biochemical. Particulars: recombinant kinase. (In general: TR-FRET usually uses a lanthanide donor and a delayed reading to cut background.)

Substrate in the data set “purified protein”: Nc1ncnc2c1ncn2[C@@H]1O[C@H](COP(=O)(O)OP(=O)(O)OP(=O)(O)O)[C@@H](O)[C@H]1O
Put plainly: purified protein. The conditions noted are these: co-substrate ULight-CREBtide; pH […]; […] MgCl2; room temperature.

These results are taken from article doi:10.1101/404459v1 (biorxiv, 2018).

The pIC50 is −log10 of the IC50, conventionally taken in molar units. As to `CCN(CC)Cc1ccc(OC)c(-c2cc3c(-c4ccc(C(=O)O)c(C(C)C)c4)ccnc3[nH]2)c1` [TCMDC-135051], the pIC50 at PvCLK3 is 7.86 ± 0.10; at PbCLK3, 7.47 ± 0.12.

B1: PfCLK1 (Plasmodium falciparum 3D7) (protein)
chain: DDEIVHFSWKKGMLLNNAFLVIRKMGDGTFGRVLLCQHIDNKKYYAVKVVRNIKKYTRSAKIEADILKKIQNDDINNNNIVKYHGKFMYYDHMCLIFEPLGPSLYEIITRNNYNGFHIEDIKLYCIEILKALNYLRKMSLTHTDLKPENILLDDPYFEKSLITVRRVTDGKKIQIYRTKSTGIKLIDFGCATFKSDYHGSIINTRQYRAPEVILNLGWDVSSDMWSFGCVLAELYTGSLLFRTHEHMEHLAMMESIIQPIPKNMLYEATKTNGSKYVNKDELKLAWPENASSINSIKHVKKCLPLYKIIKHELFCDFLYSILQIDPTLRPSPAELLKHKFLE
By Km is commonly meant the substrate concentration at which the rate is half of its maximum. On to B1, for which, in “purified protein”, the Michaelis-Menten constant (Km) was 30 µM.
